Source: US20230139171A1 (SITA Information Networking Computing UK Limited, priority 2019, published 2023)
pIC50: −log10 of the molar value.

What was measured:
Format in all cases: cell-based
[1] = molecular target: T1, human TLR7 (Homo sapiens, UniProt Q9NYK1); experiment: TLR7 inhibition reporter assay (HEK-Blue cells, SEAP reporter, gardiquimod stimulation); details: HEK-Blue cells overexpressing human TLR7, SEAP reporter, gardiquimod 7.5 μM; read-out: TLR7 IC50
T1 construct: host or cells: HEK-Blue cells
T1 sequence (Q9NYK1 27-1049): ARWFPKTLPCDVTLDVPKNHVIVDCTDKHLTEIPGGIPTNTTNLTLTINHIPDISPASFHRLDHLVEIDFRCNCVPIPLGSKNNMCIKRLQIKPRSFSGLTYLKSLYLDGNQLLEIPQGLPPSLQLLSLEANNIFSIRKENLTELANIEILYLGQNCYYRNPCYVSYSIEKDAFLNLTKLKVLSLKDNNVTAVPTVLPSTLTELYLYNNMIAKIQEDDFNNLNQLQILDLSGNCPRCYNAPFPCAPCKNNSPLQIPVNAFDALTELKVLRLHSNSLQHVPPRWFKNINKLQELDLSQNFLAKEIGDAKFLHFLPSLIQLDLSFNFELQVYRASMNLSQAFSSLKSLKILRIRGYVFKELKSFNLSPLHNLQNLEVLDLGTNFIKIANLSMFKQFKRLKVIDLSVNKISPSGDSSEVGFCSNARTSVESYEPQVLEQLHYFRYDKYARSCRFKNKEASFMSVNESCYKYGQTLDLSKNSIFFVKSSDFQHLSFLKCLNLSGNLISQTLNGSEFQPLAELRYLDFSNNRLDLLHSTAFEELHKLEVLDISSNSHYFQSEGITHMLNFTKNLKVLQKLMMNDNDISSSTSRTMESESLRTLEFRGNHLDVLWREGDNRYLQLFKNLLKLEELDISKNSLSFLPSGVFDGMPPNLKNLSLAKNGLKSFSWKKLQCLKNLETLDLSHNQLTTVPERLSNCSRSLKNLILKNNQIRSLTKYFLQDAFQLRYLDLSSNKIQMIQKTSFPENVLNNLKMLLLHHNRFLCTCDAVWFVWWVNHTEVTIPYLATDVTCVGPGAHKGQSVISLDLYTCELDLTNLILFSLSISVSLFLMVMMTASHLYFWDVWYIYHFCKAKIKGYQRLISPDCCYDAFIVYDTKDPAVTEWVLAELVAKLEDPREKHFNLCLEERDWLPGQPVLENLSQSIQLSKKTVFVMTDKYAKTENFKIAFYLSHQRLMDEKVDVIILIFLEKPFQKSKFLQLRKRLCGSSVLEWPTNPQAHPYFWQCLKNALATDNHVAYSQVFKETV
Procedure, shortened: (§1)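 Human TLR7/8/9 HEK-Blue reporter lines; dose range 0.05 nM–50 μM; 30 min RT preincubation; stimulus gardiquimod 7.5 μM / R848 15.9 μM / ODN2006 5 nM respectively; 22 h, 37 °C; SEAP detected colorimetrically.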

[2] = molecular target: T2, human TLR8 (Homo sapiens, UniProt Q9NR97); experiment: TLR8 inhibition reporter assay (HEK-Blue cells, SEAP reporter, R848 stimulation); details: HEK-Blue cells overexpressing human TLR8, SEAP reporter, R848 15.9 μM; read-out: TLR8 IC50
T2 construct: host or cells: HEK-Blue cells
T2 sequence (Q9NR97 27-1041): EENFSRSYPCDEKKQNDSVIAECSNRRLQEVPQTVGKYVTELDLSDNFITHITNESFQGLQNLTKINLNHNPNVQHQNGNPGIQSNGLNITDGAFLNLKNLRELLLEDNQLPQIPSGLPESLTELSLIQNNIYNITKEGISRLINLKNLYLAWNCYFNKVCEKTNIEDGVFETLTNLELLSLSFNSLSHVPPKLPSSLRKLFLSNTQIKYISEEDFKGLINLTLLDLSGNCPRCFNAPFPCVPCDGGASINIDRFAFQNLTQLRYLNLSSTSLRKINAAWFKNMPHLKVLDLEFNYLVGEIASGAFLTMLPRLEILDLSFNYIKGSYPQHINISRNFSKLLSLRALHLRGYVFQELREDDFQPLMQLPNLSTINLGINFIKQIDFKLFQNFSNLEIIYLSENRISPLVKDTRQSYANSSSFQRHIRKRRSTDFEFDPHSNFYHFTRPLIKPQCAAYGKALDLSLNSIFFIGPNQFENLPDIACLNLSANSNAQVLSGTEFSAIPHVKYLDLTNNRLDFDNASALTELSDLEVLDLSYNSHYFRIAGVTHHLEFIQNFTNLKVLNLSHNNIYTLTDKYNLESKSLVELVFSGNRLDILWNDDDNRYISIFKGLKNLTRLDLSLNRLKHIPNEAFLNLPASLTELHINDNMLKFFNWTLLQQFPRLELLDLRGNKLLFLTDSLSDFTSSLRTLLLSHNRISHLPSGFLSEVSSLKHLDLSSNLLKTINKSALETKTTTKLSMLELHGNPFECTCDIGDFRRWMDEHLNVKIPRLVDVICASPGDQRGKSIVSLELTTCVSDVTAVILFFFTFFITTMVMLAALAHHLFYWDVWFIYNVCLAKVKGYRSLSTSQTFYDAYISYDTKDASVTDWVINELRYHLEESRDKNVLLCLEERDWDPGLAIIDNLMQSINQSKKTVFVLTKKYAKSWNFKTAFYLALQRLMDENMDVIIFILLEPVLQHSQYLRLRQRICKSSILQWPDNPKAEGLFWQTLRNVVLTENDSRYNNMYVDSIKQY
Procedure, shortened: as §1

[3] = molecular target: T3, human TLR9 (Homo sapiens, UniProt Q9NR96); experiment: TLR9 inhibition reporter assay (HEK-Blue cells, SEAP reporter, ODN2006 stimulation); details: HEK-Blue cells overexpressing human TLR9, SEAP reporter, ODN2006 5 nM
T3 construct: host or cells: HEK-Blue cells
T3 sequence (Q9NR96 26-1032): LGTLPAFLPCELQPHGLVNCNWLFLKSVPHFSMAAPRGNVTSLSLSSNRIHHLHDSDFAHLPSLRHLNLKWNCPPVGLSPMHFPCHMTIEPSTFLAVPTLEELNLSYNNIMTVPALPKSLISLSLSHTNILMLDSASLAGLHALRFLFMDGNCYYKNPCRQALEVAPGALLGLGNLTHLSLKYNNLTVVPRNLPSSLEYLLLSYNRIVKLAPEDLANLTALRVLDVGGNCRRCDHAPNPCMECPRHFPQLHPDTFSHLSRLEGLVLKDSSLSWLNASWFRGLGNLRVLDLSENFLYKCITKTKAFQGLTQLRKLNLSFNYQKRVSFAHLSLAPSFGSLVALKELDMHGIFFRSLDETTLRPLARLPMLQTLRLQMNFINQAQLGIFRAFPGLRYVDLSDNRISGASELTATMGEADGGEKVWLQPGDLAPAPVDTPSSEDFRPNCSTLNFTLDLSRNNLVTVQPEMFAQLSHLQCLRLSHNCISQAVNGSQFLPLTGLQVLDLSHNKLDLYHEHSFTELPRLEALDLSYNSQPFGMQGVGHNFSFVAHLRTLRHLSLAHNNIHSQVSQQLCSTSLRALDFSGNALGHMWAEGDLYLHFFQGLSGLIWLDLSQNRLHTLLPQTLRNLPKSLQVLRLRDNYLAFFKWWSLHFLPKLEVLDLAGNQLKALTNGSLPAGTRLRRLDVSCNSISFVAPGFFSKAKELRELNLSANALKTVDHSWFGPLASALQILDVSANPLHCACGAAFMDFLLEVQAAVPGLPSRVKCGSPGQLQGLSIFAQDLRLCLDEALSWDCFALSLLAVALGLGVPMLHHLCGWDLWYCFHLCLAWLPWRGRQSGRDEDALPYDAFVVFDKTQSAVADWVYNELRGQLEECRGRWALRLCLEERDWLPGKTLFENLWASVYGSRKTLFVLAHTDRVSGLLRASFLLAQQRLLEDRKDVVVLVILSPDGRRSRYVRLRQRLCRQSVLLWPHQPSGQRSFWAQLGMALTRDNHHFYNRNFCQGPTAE
Procedure, shortened: as §1

Row | Structure (SMILES) | pIC50 [1] | pIC50 [2] | pIC50 [3]
1 | Cc1c(-c2[nH]c3sc(C4CCN(C5CCOCC5)CC4)nc3c2C(C)C)cn2ncnc2c1C [Example 46, 5-(7,8-dimethyl-[1,2,4]triazolo[1,5-a]pyridin-6-yl)-6-isopropyl-2-(1-(tetrahydro-2H-pyran-4-yl)piperidin-4-yl)-4H-pyrrolo[3,2-d]thiazole] | 9.24 | 9.96 | 5.60
2 | Cc1c(-c2[nH]c3sc(C4CCN(CC5(C)COC5)CC4)nc3c2C(C)C)cn2ncnc2c1C [Example 47, 5-(7,8-dimethyl-[1,2,4]triazolo[1,5-a]pyridin-6-yl)-6-isopropyl-2-(1-((3-methyloxetan-3-yl)methyl)piperidin-4-yl)-4H-pyrrolo[3,2-d]thiazole] | 8.53 | 9.25 | 5.16
3 | Cc1c(-c2[nH]c3sc(C4CCN(CC5CCOCC5)CC4)nc3c2C(C)C)cn2ncnc2c1C [Example 48, 5-(7,8-dimethyl-[1,2,4]triazolo[1,5-a]pyridin-6-yl)-6-isopropyl-2-(1-((tetrahydro-2H-pyran-4-yl)methyl)piperidin-4-yl)-4H-pyrrolo[3,2-d]thiazole] | 8.22 | 8.36 | 4.71
4 | Cc1c(-c2[nH]c3sc(C4CCN(C)CC4)nc3c2C(C)C)cn2ncnc2c1C [Example 49, 5-(7,8-dimethyl-[1,2,4]triazolo[1,5-a]pyridin-6-yl)-6-isopropyl-2-(1-methylpiperidin-4-yl)-4H-pyrrolo[3,2-d] thiazole] | 9.01 | 9.32 | 5.04
5 | CCN1CCC(c2nc3c(C(C)C)c(-c4cn5ncnc5c(C)c4C)[nH]c3s2)CC1 [Example 50, 5-(7,8-dimethyl-[1,2,4]triazolo[1,5-a]pyridin-6-yl)-2-(1-ethylpiperidin-4-yl)-6-isopropyl-4H-pyrrolo[3,2-d]thiazole] | 8.90 | 8.56 | 4.76
6 | CCCN1CCC(c2nc3c(C(C)C)c(-c4cn5ncnc5c(C)c4C)[nH]c3s2)CC1 [Example 51, 5-(7,8-dimethyl-[1,2,4]triazolo[1,5-a]pyridin-6-yl)-6-isopropyl-2-(1-propylpiperidin-4-yl)-4H-pyrrolo[3,2-d]thiazole] | 8.80 | 8.99 | 5.06
7 | Cc1c(-c2[nH]c3sc(C4CCN(CC(C)C)CC4)nc3c2C(C)C)cn2ncnc2c1C [Example 52, 5-(7,8-dimethyl-[1,2,4]triazolo[1,5-a]pyridin-6-yl)-2-(1-isobutylpiperidin-4-yl)-6-isopropyl-4H-pyrrolo[3,2-d]thiazole] | 8.54 | 8.37 | 4.75
8 | Cc1c(-c2[nH]c3sc(C4CCN(CC5CC5)CC4)nc3c2C(C)C)cn2ncnc2c1C [Example 53, 2-(1-(cyclopropylmethyl)piperidin-4-yl)-5-(7,8-dimethyl-[1,2,4]triazolo[1,5-a]pyridin-6-yl)-6-isopropyl-4H-pyrrolo[3,2-d]thiazole] | 9.03 | 9.10 | 5.29
9 | CCC(CC)CN1CCC(c2nc3c(C(C)C)c(-c4cn5ncnc5c(C)c4C)[nH]c3s2)CC1 [Example 54, 5-(7,8-dimethyl-[1,2,4]triazolo[1,5-a]pyridin-6-yl)-2-(1-(2-ethylbutyl)piperidin-4-yl)-6-isopropyl-4H-pyrrolo[3,2-d]thiazole] | 8.96 | 8.43 | 5.18
10 | Cc1c(-c2[nH]c3sc(C4CCN(CC(=O)N(C)C)CC4)nc3c2C(C)C)cn2ncnc2c1C [Example 57, 2-(4-(5-(7,8-dimethyl-[1,2,4]triazolo[1,5-a]pyridin-6-yl)-6-isopropyl-4H-pyrrolo[3,2-d]thiazol-2-yl)piperidin-1-yl)-N,N-dimethylacetamide] | 8.37 | 8.87 | 4.64
11 | Cc1c(-c2[nH]c3sc(C4CCN(CC(N)=O)CC4)nc3c2C(C)C)cn2ncnc2c1C [Example 58, 2-(4-(5-(7,8-dimethyl-[1,2,4]triazolo[1,5-a]pyridin-6-yl)-6-isopropyl-4H-pyrrolo[3,2-d]thiazol-2-yl)piperidin-1-yl)acetamide] | 8.52 | 8.84 | 4.48
